Experimental data reported in ChEMBL document CHEMBL5380779, “Small Molecules Targeting the RNA-Binding Protein HuR Inhibit Tumor Growth in Xenografts” (J Med Chem, 2023).
Active and inactive are the calls of the source. No cut-off for these calls is given here.

What was measured:
MDA-MB-231 [1] = assay: Cytotoxicity against human MDA-MB-231 cells assessed as inhibition of cell growth by MTT assay; format: functional, cell-based
MDA-MB-231 [2] = assay: Downregulation of Msi2 protein expression in human MDA-MB-231 cells incubated for 48 hrs by Western blotting analysis; format: functional, cell-based; conditions: dose 5-10 µM
[3] = target: ELAV-like protein 1 (Homo sapiens) (UniProt Q15717); assay: Thermal stabilization of HuR in human MDA-MB-231 cells at 10 uM at 42 to 54 degreeC incubated for 1 hr by western blot based cellular thermal shift assay; format: cell-based
MDA-MB-231 [4] = assay: Inhibition of HuR-XIAP mRNA binding in human MDA-MB-231 cells at 5 uM incubated for 6 hrs by RNP immunoprecipitation assay; format: cell-based
MDA-MB-231 [5] = assay: Downregulation of HuR protein expression in human MDA-MB-231 cells at 5 to 10 uM incubated for 48 hrs by Western blotting analysis; format: functional, cell-based; conditions: dose 5-10 µM
MDA-MB-231 [6] = assay: Inhibition of HuR-16-nt biotinylated ARE Msi1 mRNA binding in human MDA-MB-231 cells at 10 uM by Western blotting analysis based pull-down assay; format: cell-based
MDA-MB-231 [7] = assay: Inhibition of HuR-16-nt biotinylated ARE Msi1 mRNA binding in human MDA-MB-231 cells at 20 uM by Western blotting analysis based pull-down assay; format: cell-based
MDA-MB-231 [8] = assay: Downregulation of XIAP protein expression in human MDA-MB-231 cells incubated for 48 hrs by Western blotting analysis; format: functional, cell-based; conditions: dose 5-10 µM
MDA-MB-231 [9] = assay: Inhibition of HuR-Bcl-2 mRNA binding in human MDA-MB-231 cells at 5 uM incubated for 6 hrs by RNP immunoprecipitation assay; format: cell-based
MDA-MB-231 [10] = assay: Inhibition of HuR-Msi2 mRNA binding in human MDA-MB-231 cells at 5 uM incubated for 6 hrs by RNP immunoprecipitation assay; format: cell-based
MDA-MB-231 [11] = assay: Cytotoxicity against HuR knockout 2 human MDA-MB-231 cells assessed as inhibition of cell growth by MTT assay (reference value: 1.491 uM); format: functional, cell-based
MDA-MB-231 [12] = assay: Cytotoxicity against HuR knockout 1 human MDA-MB-231 cells assessed as inhibition of cell growth by MTT assay (reference value: 1.491 uM); format: functional, cell-based
MDA-MB-231 [13] = assay: Downregulation of Bcl-2 protein expression in human MDA-MB-231 cells incubated for 48 hrs by Western blotting analysis; format: functional, cell-based; conditions: dose 5-10 µM
MDA-MB-231 [14] = assay: Inhibition of cell invasion of human MDA-MB-231 cells at 5 uM incubated for 24 hrs by crystal violet staining based analysis; format: functional
MDA-MB-231 [15] = assay: Inhibition of HuR-THBS1 mRNA binding in human MDA-MB-231 cells assessed as half life of THBS1 in presence of actinomycin D (reference value: 10.46 hrs); format: cell-based
MDA-MB-231 [16] = assay: Inhibition of cell invasion of human MDA-MB-231 cells at 10 uM incubated for 24 hrs by crystal violet staining based analysis; format: functional
MDA-MB-231 [17] = assay: Inhibition of HuR-XIAP mRNA binding in human MDA-MB-231 cells at 10 uM incubated for 6 hrs by RNP immunoprecipitation assay; format: cell-based
MDA-MB-231 [18] = assay: Inhibition of HuR-Msi2 mRNA binding in human MDA-MB-231 cells at 10 uM incubated for 6 hrs by RNP immunoprecipitation assay; format: cell-based
MDA-MB-231 [19] = assay: Inhibition of HuR-Bcl-2 mRNA binding in human MDA-MB-231 cells at 10 uM incubated for 6 hrs by RNP immunoprecipitation assay; format: cell-based
[20] = target: ELAV-like protein 1 (Homo sapiens) (UniProt Q15717); assay: Thermal stabilization of HuR in human MDA-MB-231 cells at 20 uM at 42 to 54 degreeC incubated for 1 hr by western blot based cellular thermal shift assay; format: cell-based
MDA-MB-231 [21] = assay: Inhibition of HuR-TGFB2 mRNA binding in human MDA-MB-231 cells assessed as half life of TGFB2 in presence of actinomycin D (reference value: 7.202 hrs); format: cell-based
[22] = Inhibition of full-length HuR-ARE fluorescein-labeled Msi1 mRNA binding (unknown origin) incubated for 2 hrs by fluorescence polarization assay; design: species or system Homo sapiens
[23] = Inhibition of HuR-ARE fluorescein-labeled Msi1 mRNA binding (unknown origin) by fluorescence polarization assay; design: species or system Homo sapiens
MDA-MB-231 [24] = assay: Antitumor activity against human MDA-MB-231 cells xenografted iv dosed athymic NCr-nu/nu mouse assessed as reduction in tumor size administered 3 times a week for 3 weeks; format: functional, organism-based

Sequence of ELAV-like protein 1 (Homo sapiens) (Q15717 whole entry): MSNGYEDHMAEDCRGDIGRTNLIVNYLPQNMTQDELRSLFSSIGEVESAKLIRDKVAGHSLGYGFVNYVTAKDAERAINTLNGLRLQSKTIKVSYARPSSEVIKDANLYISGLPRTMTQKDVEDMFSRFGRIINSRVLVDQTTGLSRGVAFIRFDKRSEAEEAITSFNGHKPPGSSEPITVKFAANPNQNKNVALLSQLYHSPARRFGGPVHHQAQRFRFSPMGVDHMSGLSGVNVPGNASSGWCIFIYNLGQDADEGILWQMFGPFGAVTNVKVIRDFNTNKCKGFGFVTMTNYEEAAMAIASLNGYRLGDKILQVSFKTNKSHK

| SMILES | IC50 (MDA-MB-231 [1]) [µM] | Ki [22] [µM] | also measured |
| --- | --- | --- | --- |
| CCOC(=O)c1cc2cc(NC(=O)c3ccc(N(C)C)cc3)ccc2[nH]1 | > 100 |  |  |
| CN(C)c1ccc(C(=O)Nc2ccc3[nH]c(C(=O)O)cc3c2)cc1 | 99.8 |  |  |
| CN(C)c1ccc(C(=O)Nc2ccc3sc(C(=O)NO)cc3c2)cc1 | 1.31 |  | Activity (MDA-MB-231 [2]): Dose-Dependent Effect; Activity [3]: Active; inhibition (MDA-MB-231 [4]): Active; Activity (MDA-MB-231 [5]): inactive; inhibition (MDA-MB-231 [6]): Active; inhibition (MDA-MB-231 [7]): inactive; Activity (MDA-MB-231 [8]): Dose-Dependent Effect; inhibition (MDA-MB-231 [9]): Active; inhibition (MDA-MB-231 [10]): Active; IC50 (MDA-MB-231 [11]): 3.01 µM; IC50 (MDA-MB-231 [12]): 3.66 µM; Activity (MDA-MB-231 [13]): Dose-Dependent Effect; inhibition (MDA-MB-231 [14]): Active |
| CN(C)c1ccc(C(=O)Nc2ccc3sc(C(=O)O)cc3c2)cc1 | > 100 |  |  |
| O=C(Nc1ccc2[nH]c(C(=O)NO)cc2c1)c1ccccn1 | 75.3 |  | T1/2 (MDA-MB-231 [15]): 9.03 h; inhibition (MDA-MB-231 [16]): inactive; inhibition (MDA-MB-231 [17]): inactive; inhibition (MDA-MB-231 [18]): inactive; inhibition (MDA-MB-231 [19]): inactive; Activity [20]: inactive; T1/2 (MDA-MB-231 [21]): 7.09 h |
| CC(C)(C)c1ccc(C(=O)Nc2ccc3sc(CCC(=O)O)cc3c2)cc1 | 19.8 | 3.83 |  |
| CC(C)(C)c1ccc(C(=O)Nc2ccc3sc(C(=O)NO)cc3c2)cc1 | 3.71 | 0.44 |  |
| CN(C)c1ccc(C(=O)Nc2ccc3[nH]c(/C=C/C(=O)O)cc3c2)cc1 | > 100 | 7.76 |  |
| CC(C)(C)c1ccc(C(=O)Nc2ccc3[nH]c(/C=C/C(=O)O)cc3c2)cc1 | > 100 | 3.35 |  |
| CC(C)(C)c1ccc(C(=O)Nc2ccc3[nH]c(C(=O)O)cc3c2)cc1 | > 100 |  |  |
| CC(C)(C)c1ccc(C(=O)Nc2ccc3sc(/C=C/C(=O)NO)cc3c2)cc1 | 1.33 | 0.15 | IC50 [23]: 0.597 µM; Ki [23]: 0.139 µM |
| COC(=O)c1cc2cc(NC(=O)c3ccc(N(C)C)cc3)ccc2s1 | > 100 |  |  |
| O=C(Nc1ccc2sc(C(=O)NO)cc2c1)c1ccccn1 | 4.43 |  |  |
| CN(C)c1ccc(C(=O)Nc2ccc3[nH]c(C(=O)NO)cc3c2)cc1 | 11.3 |  |  |
| CCOC(=O)/C=C/c1cc2cc(NC(=O)c3ccc(N(C)C)cc3)ccc2[nH]1 | 76.3 | 4.39 |  |
| CCOC(=O)c1cc2cc(NC(=O)c3ccc(C(C)(C)C)cc3)ccc2[nH]1 | 25.1 | > 20 |  |
| CCOC(=O)c1cc2cc(NS(=O)(=O)c3ccc(C(C)(C)C)cc3)ccc2[nH]1 | 31.8 | > 20 |  |
| CC(=O)O[C@@]12CO[C@@H]1C[C@H](O)[C@@]1(C)C(=O)[C@H](O)C3=C(C)[C@@H](OC(=O)[C@H](O)[C@@H](NC(=O)OC(C)(C)C)c4ccccc4)C[C@@](O)([C@@H](OC(=O)c4ccccc4)[C@H]21)C3(C)C |  |  | Activity (MDA-MB-231 [24]): Active |
| O=C(Nc1ccc2sc(C(=O)O)cc2c1)c1ccccn1 | > 100 |  |  |
| CN(C)c1ccc(C(=O)Nc2ccc3[nH]c(/C=C/C(=O)NO)cc3c2)cc1 | 8.91 | 0.69 |  |

| SMILES | IC50 (MDA-MB-231 [1]) [µM] | Ki [22] [µM] | also measured |
| --- | --- | --- | --- |
| CC(C)(C)c1ccc(S(=O)(=O)Nc2ccc3sc(C(=O)NO)cc3c2)cc1 | 12.9 | 3.24 |  |
| COC(=O)c1cc2cc(NC(=O)c3ccc(C(C)(C)C)cc3)ccc2s1 | 5.28 | > 20 |  |
| CCOC(=O)c1cc2cc(NC(=O)c3ccccn3)ccc2[nH]1 | > 100 |  |  |
| CC(C)(C)c1ccc(S(=O)(=O)Nc2ccc3[nH]c(C(=O)NO)cc3c2)cc1 | 32 | 1.75 |  |
| CCOC(=O)/C=C/c1cc2cc(NC(=O)c3ccc(C(C)(C)C)cc3)ccc2[nH]1 | 1.13 | > 20 |  |
| CC(C)(C)c1ccc(S(=O)(=O)Nc2ccc3[nH]c(C(=O)O)cc3c2)cc1 | > 100 | 6.17 |  |
| O=C(Nc1ccc2[nH]c(C(=O)O)cc2c1)c1ccccn1 | > 100 |  |  |
| CCOC(=O)/C=C/c1cc2cc(NC(=O)c3ccc(C(C)(C)C)cc3)ccc2s1 | 57.7 | 13.3 |  |
| CC(C)(C)c1ccc(C(=O)Nc2ccc3sc(C(=O)O)cc3c2)cc1 | 90.5 | 5.08 |  |
| COC(=O)c1cc2cc(NC(=O)c3ccccn3)ccc2s1 | > 100 |  |  |
| CC(C)(C)c1ccc(C(=O)Nc2ccc3sc(/C=C/C(=O)O)cc3c2)cc1 | 72.1 | 0.97 |  |
| CC(C)(C)c1ccc(S(=O)(=O)Nc2ccc3sc(/C=C/C(=O)NO)cc3c2)cc1 |  |  | IC50 [23]: 3.34 µM; Ki [23]: 0.783 µM |
| CC(C)(C)c1ccc(C(=O)Nc2ccc3[nH]c(/C=C/C(=O)NO)cc3c2)cc1 | 2.24 | 0.34 |  |
| CC(C)(C)c1ccc(C(=O)Nc2ccc3sc(CCC(=O)NO)cc3c2)cc1 | 3.49 | 0.83 |  |
| COC(=O)c1cc2cc(NS(=O)(=O)c3ccc(C(C)(C)C)cc3)ccc2s1 | 27.4 | 15.4 |  |
| CC(C)(C)c1ccc(S(=O)(=O)Nc2ccc3sc(C(=O)O)cc3c2)cc1 | > 100 | 2.42 |  |
| CCOC(=O)CCc1cc2cc(NC(=O)c3ccc(C(C)(C)C)cc3)ccc2s1 | 6.52 | 11.8 |  |
| CC(C)(C)c1ccc(C(=O)O)cc1 |  |  | IC50 [22]: > 200 µM |
| O=C(O)c1cc2cc([N+](=O)[O-])ccc2[nH]1 |  | 6.95 | IC50 [22]: 29.7 µM |
